According to ChEMBL document CHEMBL5338706, “Discovery of a potent and selective proteolysis targeting chimera (PROTAC) degrader of NSD3 histone methyltransferase” (Eur J Med Chem, 2022):

Tests used:
[1] = Downregulation of NSD3 level in human NCI-H1703 cells at […] by measuring fold change by Western blot analysis relative to control; format: functional; conditions: dose 7.5 µM
[2] = Downregulation of c-Myc level in human NCI-H1703 cells at […] by measuring fold change by Western blot analysis relative to control; format: functional; conditions: dose 7.5 µM
NCI-H1703 [3] = assay: Induction of apoptosis in human NCI-H1703 cells assessed as necrotic cells at 3 uM measured after 72 hrs by PI/Annexin-V staining based flow cytometry analysis (reference value: 2.80% ); format: functional
[4] = Downregulation of NSD3 level in human NCI-H520 cells at […] by measuring fold change by Western blot analysis relative to control; format: functional; conditions: dose 7.5 µM
A549 = assay: Antiproliferative activity against human A549 cells incubated for 3 days by CCK-8 method; format: functional, cell-based; conditions: A549, 72 h
NCI-H1703 [5] = assay: Induction of apoptosis in human NCI-H1703 cells assessed as late apoptotic cells at […] measured after 72 hrs by PI/Annexin-V staining based flow cytometry analysis (reference value: 3.00% ); format: functional; conditions: dose 7.5 µM
[6] = biological target: T1, Histone-lysine N-methyltransferase NSD3 (Homo sapiens) (UniProt Q9BZ95); assay: Induction of NSD3 degradation in human NCI-H1703 cells at 0.001 to 5 uM by Western blot analysis; format: cell-based; conditions: dose 0.001-5 µM, time 12-72 hrs, TDE = time-dependent effect
T1 sequence (whole entry): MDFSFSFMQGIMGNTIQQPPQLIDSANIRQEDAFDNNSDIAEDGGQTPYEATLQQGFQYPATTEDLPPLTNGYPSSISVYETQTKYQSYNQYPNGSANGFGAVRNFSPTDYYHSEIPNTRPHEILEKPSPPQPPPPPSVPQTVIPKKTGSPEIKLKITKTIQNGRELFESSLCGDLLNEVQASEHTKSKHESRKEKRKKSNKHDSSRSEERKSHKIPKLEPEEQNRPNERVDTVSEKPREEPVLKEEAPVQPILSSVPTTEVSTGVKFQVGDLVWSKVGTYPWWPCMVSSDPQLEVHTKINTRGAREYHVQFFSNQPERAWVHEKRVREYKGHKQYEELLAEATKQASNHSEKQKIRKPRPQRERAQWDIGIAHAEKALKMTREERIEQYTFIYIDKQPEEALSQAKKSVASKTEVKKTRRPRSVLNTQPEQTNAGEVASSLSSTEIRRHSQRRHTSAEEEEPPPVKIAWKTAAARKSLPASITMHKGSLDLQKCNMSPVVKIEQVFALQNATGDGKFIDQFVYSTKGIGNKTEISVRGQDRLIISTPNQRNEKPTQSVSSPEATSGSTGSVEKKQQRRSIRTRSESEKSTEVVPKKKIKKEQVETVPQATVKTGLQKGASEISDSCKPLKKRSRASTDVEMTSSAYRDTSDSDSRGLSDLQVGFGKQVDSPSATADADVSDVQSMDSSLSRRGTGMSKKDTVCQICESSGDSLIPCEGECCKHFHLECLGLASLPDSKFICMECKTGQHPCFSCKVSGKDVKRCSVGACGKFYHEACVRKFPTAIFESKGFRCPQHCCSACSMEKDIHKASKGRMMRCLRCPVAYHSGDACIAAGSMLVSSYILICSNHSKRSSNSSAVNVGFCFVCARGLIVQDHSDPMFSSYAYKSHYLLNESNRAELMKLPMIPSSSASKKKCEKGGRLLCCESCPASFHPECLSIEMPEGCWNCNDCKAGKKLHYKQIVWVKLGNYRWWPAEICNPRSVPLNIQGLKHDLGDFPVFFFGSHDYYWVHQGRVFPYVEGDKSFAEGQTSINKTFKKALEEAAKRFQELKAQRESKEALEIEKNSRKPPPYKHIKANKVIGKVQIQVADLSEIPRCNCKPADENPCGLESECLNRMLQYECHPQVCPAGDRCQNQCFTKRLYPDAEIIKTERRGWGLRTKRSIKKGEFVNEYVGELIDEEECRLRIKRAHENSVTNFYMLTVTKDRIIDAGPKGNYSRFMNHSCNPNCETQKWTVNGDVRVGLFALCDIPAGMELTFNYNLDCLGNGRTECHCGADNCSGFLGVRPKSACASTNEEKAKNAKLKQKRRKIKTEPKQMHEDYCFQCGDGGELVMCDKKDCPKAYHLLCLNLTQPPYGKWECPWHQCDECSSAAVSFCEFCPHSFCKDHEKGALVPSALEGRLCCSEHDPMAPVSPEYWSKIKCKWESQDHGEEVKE

NCI-H1703 [7] = assay: Induction of apoptosis in human NCI-H1703 cells assessed as decrease in MCL-1 protein expression at 5 uM by measuring fold change by Western blot analysis relative to control; format: functional

IC50 (A549): 5.49 µM
Activity [6]: Tde
SMILES: Cc1cc(CNCCCCCCCCCCC(=O)N[C@H](C(=O)N2C[C@H](O)C[C@H]2C(=O)N[C@@H](C)c2ccc(-c3scnc3C)cc2)C(C)(C)C)cc(C)c1-c1ncn(C)c1-c1ccnc2cc(F)ccc12
fold change (FC) [1]: 0.66
fold change (FC) [2]: 0.72
Activity (NCI-H1703 [3]): 1.34%
fold change (FC) [4]: 0.61
Activity (NCI-H1703 [5]): 26.6%
fold change (FC) (NCI-H1703 [7]): 0.8
